# Laboratory results: PubChem BioAssay AID720512 (Broad Institute, 2013)
# Calls of active or inactive are those of the source. No rule for the calls is given here.
# Molecular target: Toxin B (TcdB) glycohydrolase, Clostridioides difficile 630
# Test: TcdB glycohydrolase inhibitors, dose response, biochemical, cherry-pick, plate reader (AID 720512)
# Conditions: recombinant TcdB glycohydrolase activity
row,SMILES,AC50
1,CCOC(=O)/C(=N/Nc1ccc(Br)cc1)N1CC(C)OC(C)C1 (configuration not stated),6.61 µM
2,Oc1ccc(/C=N/N2CCN(c3ccccn3)CC2)cc1,> 39 µM (inactive)
3,CCCNC(=O)C[C@H]1CC[C@@H]2[C@H](COc3ccc(NC(=O)c4ccc(Cl)cc4)cc3C(=O)N2C)O1,> 39 µM (inactive)
4,CC(C)NC(=O)N1CC[C@@H]2[C@H]1c1cc(-c3ccccc3)ccc1N(C)[C@H]2CO,> 39 µM (inactive)
5,Cn1c(=O)c2[nH]c(=S)n(Cc3ccccc3)c2n(C)c1=O,18.2 µM
6,CCOc1ccccc1-n1c(=S)sc2c(=O)n(-c3ccc(F)cc3)c(SCC(=O)O)nc21,> 39 µM (inactive)
7,Oc1ccc(Cc2ccccc2Cl)c(O)c1,> 39 µM (inactive)
8,COc1cc(/C=N/n2c(-c3ccccc3)n[nH]c2=S)ccc1O,> 39 µM (inactive)
9,Cc1cc(N/N=C/c2ccc(O)cc2)c2cccc(C)c2n1,> 39 µM (inactive)
10,Nc1ccc(OCCCc2c(N)nc(N)nc2N)cc1,> 39 µM (inactive)

# Same assay, conditions: recombinant TcdB glycohydrolase activity, at 19.5 µM (top of the series)
row,SMILES,"activity change, negative = inhibition"
1,O=[N+]([O-])c1cc(Br)ccc1NS(=O)(=O)c1ccccc1,inactive
2,CC(=O)N1CCN(c2ccc(S(C)(=O)=O)cc2[N+](=O)[O-])CC1,inactive
3,CC1=C(C(=O)OCC2CCCO2)C(c2coc3ccccc3c2=O)C2=C(CCCC2=O)N1 (configuration not stated),inactive
4,COc1cc(/C=C/C(=O)OCC(=O)N(C)Cc2ccccc2)ccc1O,inactive
5,COc1cc(NC(=O)CCc2nnc3ccc(N4CCC(C)CC4)nn23)cc(OC)c1,inactive
6,CCN(CC)C(=O)C1CCN(S(=O)(=O)c2c(C)noc2/C=C/c2cccc(C)c2)CC1,inactive
7,CC(=O)Nc1ccc(S(=O)(=O)Nc2nc3ccccc3nc2-n2ccc(=NC(=O)c3ccc(F)cc3)cc2)cc1,inactive
8,CCOC(=O)c1ccc[n+](CC(=O)c2ccc(NC(=O)c3ccccc3)cc2)c1,inactive
9,CCCCc1[nH]c(=O)c(C#N)c2c1CCCC2,inactive
10,Nc1nc(Cl)cc(NCCc2ccc(O)cc2)n1,inactive
11,CC(C)=CCOc1c2occc2cc2ccc(=O)oc12,inactive
12,Cc1ccc(C(=O)NC(=O)OCCn2c(C)cnc2[N+](=O)[O-])cc1,inactive
13,CC(C)(C)N1[C@@H](CC(=O)O)c2cc(C(F)(F)F)ccc2S1(=O)=O,inactive
14,CCN(C(=O)CN1C(=O)NC2(CCC(C)CC2)C1=O)C1CCCCC1 (configuration not stated),inactive
15,O=C(NNc1ccc(-c2csnn2)cc1)c1cc(Cl)cc(Cl)c1,inactive
16,COc1ccccc1CNC(=O)CNC(=O)N1CC(=O)Nc2ccccc21,inactive
17,CCOc1ccc2ccccc2c1/C=N/NC(=O)c1ccncc1,inactive
18,O=C1NN=C2CCCCCCC12 (configuration not stated),inactive
19,CC(=O)Nc1ccc(NC(=O)Cc2ccc(S(=O)(=O)N3CCCCC3)cc2)cc1,inactive
20,CC1C(c2ccc3c(c2)OCO3)c2cc3c(cc2OC1N1CCOCC1)OCO3 (configuration not stated),inactive
21,Cc1cccn2c(CN(C)C3CCCc4ccccc43)c(C(=O)N3CCOCC3)nc12 (configuration not stated),inactive

row,SMILES,"activity change, negative = inhibition"
1,O=C(c1ccccc1F)N1CCN(c2ccc([N+](=O)[O-])c3cccnc23)CC1,inactive
2,COc1cccc2cc(/C(C)=N/NC(=O)c3ccco3)oc12,inactive
3,CCOC(=O)c1sc2nc(OCCN3CCOCC3)cc(C)c2c1N,inactive
4,O=C(CN1C(=O)CCC1=O)NNc1ccc2ccccc2c1,inactive
5,O=C(O)c1ccc(-n2nnc3ccccc32)c([N+](=O)[O-])c1,inactive
6,COCCCNC(=O)C1CCN(S(=O)(=O)c2c(C)noc2/C=C\c2ccc(OC)cc2)CC1,inactive
7,COc1cc(C=NNC(=O)c2ccccc2-n2cccc2)ccc1O,inactive
8,CCOc1ccc(S(=O)(=O)NCc2ccccc2Cl)cc1C(N)=O,inactive
9,CCCS(=O)(=O)NC(=O)C1(C)CCN(C(=O)c2ccco2)C1 (configuration not stated),inactive
10,CC(Sc1nc2ccccc2n1C)C(=O)Nc1ccc(N2CCOCC2)cc1 (configuration not stated),inactive
11,Nc1ccc2c(c1)Nc1ccccc1CC2,inactive
12,COc1cc(/C=N/Nc2nc3ccccc3[nH]2)ccc1O,inactive
13,CN1C(=O)c2cc(NC(=O)c3cccc(F)c3)ccc2OC[C@H]2O[C@H](CC(=O)NCC3CCCCC3)CC[C@@H]21,inactive
14,CCN(CC)S(=O)(=O)c1cc(C(=O)Nc2cccnc2Cl)ccc1Cl,inactive
15,COc1ccc(-c2ccc3c(c2)[C@@H]2[C@@H](CCN2C(=O)CN2CCOCC2)[C@H](CO)N3)cc1,inactive
16,COc1cc(OC)cc(C(=O)NNC(=O)CN2C(=O)NC(C)(c3ccc(C)cc3)C2=O)c1 (configuration not stated),inactive
17,O=C1CCCC2=C1Sc1ccccc1N2,inactive
18,O=C(Nc1ccc(O)cc1)/C(=C\c1ccncc1)NC(=O)c1ccccc1,inactive
19,CC(=O)Nc1ccc(NC(=O)CN2CCN(c3ccccn3)CC2)cc1,inactive
20,CC(C)CNC(=O)c1c(F)c(F)c(F)c(F)c1F,inactive
21,COc1ccc(C2=NS(=O)(=O)N(C)C(C(=O)N3CCc4ccccc4C3)=C2)cc1OC,inactive

row,SMILES,"activity change, negative = inhibition"
1,O=C(C[C@@H]1CC[C@H]2[C@@H](COC[C@H](O)CN2C(=O)c2ccccn2)O1)NC1CCC1,inactive
2,Cc1cc(N/N=C/c2ccc(O)cc2O)nc(N2CCOCC2)n1,inactive
3,O=c1[nH]c(/C=C\c2ccc(O)cc2)nc(O)c1[N+](=O)[O-],inactive
4,COc1ccc(OCc2cc(-c3ccc(Cl)cc3)no2)cc1,inactive
5,CC(Sc1nccn1C)C(=O)c1c(N)n(C)c(=O)n(C)c1=O (configuration not stated),inactive
6,COC(=O)C1=C(c2ccc(F)cc2OCc2ccccc2)C[C@@H]2CC[C@H]1N2C(=O)N1CCCC1,inactive
7,O=C(NCCc1ccc(Cl)cc1)C1CCN(S(=O)(=O)c2ccc(Br)s2)CC1,inactive
8,c1ccc2[nH]c(-c3ccc4c(c3)OCO4)nc2c1,inactive
9,COc1cc(/C=C/C(=O)OCC(=O)NCc2ccco2)ccc1O,inactive
10,CC(=O)C1=CCC(c2ccc(C)cc2)N(S(=O)(=O)c2ccc(C)cc2)C1 (configuration not stated),inactive
11,CC[n+]1ccc(/C=C/c2ccc(N(C)C)cc2)c2ccccc21,inactive
12,COc1ccc(C(=O)NC(CC(=O)O)c2cc([N+](=O)[O-])ccc2Cl)c(SC)c1 (configuration not stated),inactive
13,CCCCNS(=O)(=O)c1ccc(OCC(=O)OC)cc1,inactive
14,Cc1cccc2sc(NNC(=O)C3COc4ccccc4O3)nc12 (configuration not stated),inactive
15,CNC(C(=O)c1ccccc1)C(OC)c1cccc([N+](=O)[O-])c1 (configuration not stated),inactive
16,CNC(=O)C1CCN(S(=O)(=O)c2c(C)noc2/C=C/c2ccc(OC)cc2)CC1,inactive
17,COc1ccc2nccc(/C=C/c3ccnc4ccc(OC)cc34)c2c1,inactive
18,Oc1ccc(-c2nc3cnccn3c2Nc2ccc3c(c2)OCCO3)cc1,inactive
19,Cc1cscc1-c1nc(NCC2CC2)nc2ccsc12,inactive
20,CNC(=O)C1CCN(S(=O)(=O)c2c(C)noc2/C=C/c2ccccc2F)CC1,inactive
21,O=C(NCc1ccncc1)[C@@H]1CCCN1C(=O)[C@@H]1CCCN1,inactive

row,SMILES,"activity change, negative = inhibition"
1,Cc1cc(C(=O)CSc2nc(N)cc(=O)[nH]2)c(C)n1CC1CCCO1 (configuration not stated),inactive
2,CC(C)CNC(=O)C(=O)NCC1CCCN1S(=O)(=O)c1cccs1 (configuration not stated),inactive
3,CN1CCN(C(CNC(=O)c2ccc(Br)o2)c2ccc(F)cc2)CC1 (configuration not stated),inactive
4,COc1ccc(NC(=O)c2cc(S(=O)(=O)N3CCc4ccccc43)cn2C)cc1OC,inactive
5,CC(C)(C)c1cc(Cl)c(O)c(NC(=S)NC(=O)c2cccnc2)c1,inactive
6,C/C(CCc1ccccc1)=N\NC(=O)C1C2CCCCC21 (configuration not stated),inactive
7,CC(C)Sc1nnc(NC(=O)c2ccco2)s1,inactive
8,Cc1cc(C(=O)N2CCN(Cc3ccccc3)CC2)ccc1[N+](=O)[O-],inactive
9,CC(C)OC(=O)c1cccc(C(=O)O)n1,inactive
10,O=C(CSc1nc2cc(Cl)ccc2s1)c1ccco1,inactive
11,COc1cc([N+](=O)[O-])ccc1NC(=O)Oc1ccc(NC(C)=O)cc1,inactive
12,Cc1ccc(C(=O)NCCn2cc(SCC(=O)Nc3cc(C)on3)c3ccccc32)cc1,inactive
13,CNC(=O)C[C@H]1CC[C@@H]2[C@H](COc3ccc(NC(=O)Nc4ccc(C)cc4)cc3C(=O)N2C)O1,inactive
14,COc1cccc(C(=O)C2CCCN(Cc3ccc(F)cc3)C2)c1 (configuration not stated),inactive
15,COc1ccc(C(O)(C(C)C)C(CN2CCOCC2)c2ccccc2)cc1 (configuration not stated),inactive
16,COc1cc(/C=N/N2C(=O)C3C4C=CC(CC4)C3C2=O)ccc1O (configuration not stated),inactive
17,Fc1ccccc1Nc1n[nH]c(=S)s1,inactive
18,Cn1c(-c2ccc(F)c(F)c2)cc2onc(-c3ccccc3)c2c1=O,inactive

# Same assay, conditions: recombinant TcdB glycohydrolase activity, at 21 µM (top of the series)
row,SMILES,"activity change, negative = inhibition"
1,C[C@@H]1CN([C@@H](C)CO)C(=O)c2c(c3ccccc3n2C)-c2ccccc2CO[C@@H]1CN(C)C,inactive
